Results on 15 molecules are retold here after patent US20210292340A1, “CELL NECROSIS INHIBITOR, PREPARATION METHOD THEREFOR AND USE THEREOF” (SHANGHAI INSTITUTE OF ORGANIC CHEMISTRY, CHINESE ACADEMY OF …, priority 2018, published 2021).

pKi: −log10 of the molar value. Like-named read-outs stand apart in the source and are kept apart here.

As a reminder, the pKi is the Ki on a negative log10 scale, so that one unit is a factor of ten.

One data set addresses T1, human RIP1 (Homo sapiens, UniProt Q13546).
T1 construct: made in house; host or cells: Sf-9 insect cells
T1 sequence (Q13546 1-671): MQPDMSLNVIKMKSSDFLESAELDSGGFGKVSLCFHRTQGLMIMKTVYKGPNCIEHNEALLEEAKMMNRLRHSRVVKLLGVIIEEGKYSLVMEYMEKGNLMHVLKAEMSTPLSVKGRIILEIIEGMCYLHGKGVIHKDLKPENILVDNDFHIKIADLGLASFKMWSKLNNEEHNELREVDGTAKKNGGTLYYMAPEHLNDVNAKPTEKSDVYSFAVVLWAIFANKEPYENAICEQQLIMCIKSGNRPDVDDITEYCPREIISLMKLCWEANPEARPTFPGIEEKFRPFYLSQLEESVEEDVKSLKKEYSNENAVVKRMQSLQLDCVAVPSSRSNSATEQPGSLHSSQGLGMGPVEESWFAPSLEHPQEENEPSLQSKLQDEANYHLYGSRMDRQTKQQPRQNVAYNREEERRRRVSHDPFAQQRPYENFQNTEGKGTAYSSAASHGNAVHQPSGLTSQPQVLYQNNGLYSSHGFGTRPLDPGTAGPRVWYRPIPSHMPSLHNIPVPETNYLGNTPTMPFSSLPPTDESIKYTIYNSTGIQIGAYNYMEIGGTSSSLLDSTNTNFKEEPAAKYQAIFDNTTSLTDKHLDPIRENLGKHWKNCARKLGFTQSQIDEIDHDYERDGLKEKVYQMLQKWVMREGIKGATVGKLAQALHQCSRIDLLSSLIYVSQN
The data set can be described thus: Inhibition of ADP-Glo RIP1 kinase activity. The format is biochemical. Here is the method: The human RIP1 gene was transduced into Sf-9 insect cells, and the RIP1 protein was purified by Ni+ affinity chromatography and then by S-200 molecular sieve to remove the protein multimers. The obtained RIP1 protein was stored at −70° C., and the activity of the RIP1 protein in catalyzing autophosphorylation was detected by the ADP-Glo™ Kinase Activity Assay Kit (Promega) and the inhibitory activity of the drug against the RIP1 kinase was determined.
100 nL of the compound was transferred to a 384-well assay plate. Two replicate wells were set for each concentration of each drug.
The RIP1 enzyme solution and ATP solution were formulated in an assay buffer (containing 50 mM HEPES pH 7.5, 30 mM MgCl2, 50 mM NaCl, 1 mM DTT, 0.02% CHAPS, and 0.5 mg/ml BSA). Then, 5 μL of the RIP1 enzyme solution (final concentration 50 nM) was added to the assay plate and incubated at room temperature for 1 h. 5 μL of the ATP solution (final concentration 10 μM) was added to the assay plate, and incubate at room temperature for 4 h. Then 5 μL of ADP-Glo reagent was added to the assay plate, and incubated at room temperature for 60 min. 5 μL of a kinase assay solution was added to the assay plate, and incubated at room temperature for 30 min. After readout on Envision, the inhibition rate in each well was calculated from the full-activity well and the background well, and the Ki of the compound was calculated by GraphPad Prism 7 software (using the Morrision equation to fit the curve and calculate the Ki).
In general terms: ADP-Glo first removes unused ATP, then detects ADP through luciferase.

For the next data set, the system named is Jurkat (FADD−/−) cells. The data set can be described thus: Inhibition of TNF-induced programmed Jurkat (FADD−/−) cell necrosis (Cell Titer-Glo). It is filed as cell-based, human. The conditions noted are these: Homo sapiens, Jurkat, 20 h, read-out: Cellular IC50 (M) Jurkat (FADD−/−). The procedure, abridged: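 FADD-knockout Jurkat cells (5×10^5/mL) preincubated with compound, then given TNF (final 10 ng/mL) for 20 h at 37 °C. ATP measured by Cell Titer-Glo luminescence, normalised to untreated DMSO wells as 100% viability; IC50 from duplicate wells.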
A general note: In ATP-based viability assays light output follows the ATP content of the culture.

Another data set relates to TNF-α induced shock. The data set can be described thus: TNF-α induced shock test in mice. The format is in vivo, C57BL/6 mice. The conditions noted are these: 10, 20 and 30 mg/kg, given 15 min before TNF-α; body temperature 0-6 h. Here is the method:
C57BL/6 mice were specially sterilized, and the animals are randomly grouped according to their body weight. 0.15 mg/mL TNF-α was prepared. Each mouse was injected with 200 μL TNF-alpha (30 μg per mouse) through the tail vein. 15 min before TNF-α induction, the drug was administered according to the body weight. At 0 h, 1 h, 2 h, 4 h, and 6 h, the body temperature of the mouse was detected by a small animal thermometer and recorded, and the state of the animal was observed during the test. After 6 h, the mice were euthanized with CO2. The experimental data was plotted by Graph Pad Prism 7, and expressed as mean±standard error (Mean±SEM). The area under the clinical scoring curve was analyzed by one-way ANOVA. p<0.05 is considered to have significant differences as compared to the control group.

The nature of data set [1]: Plasma concentration in mice after a single oral administration. The conditions noted are these: single oral dose 10 mg/kg, 0.25-24 h. It is filed as in vivo. The protocol:
An oral solution containing Compound RIP1-034 of the present application was freshly prepared with an aqueous solution containing 0.5% MC/0.25% Tween 80 on the day of administration. All animals were fasted overnight before administration, and were allowed to have free food intake 4 hours after administration. Each group included three mice, and each mouse was orally administered a single dose of 10 mg/kg on the day of the experiment. About 30 μL of whole blood was collected from the dorsal vein of the foot at 0.25, 0.5, 1, 2, 4, 6, 8, and 24 hours after administration, transferred to an anticoagulation tube containing heparin sodium and mixed thoroughly by inverting for several times. The collected blood sample was centrifuged at 4° C. and 4000 g for 5 min to collect plasma, and the plasma sample was dispensed into clean polyethylene microcentrifuge tubes, and then stored in a freezer at −75±15° C. until analysis. The actual administration volume was calculated based on the animal's body weight. All samples were analyzed by LC-MS/MS, and the concentration of the drug to be tested in the samples was determined by the standard curve method. The average plasma concentration in a group of three mice at each measurement time point after a single oral administration is shown in FIG. 3.

[2] abbreviates: TNF 10 ng/mL, intracellular ATP level.

Take `CN1C(=O)[C@@H](NC(=O)c2nnc(Cc3ccccc3)[nH]2)COc2cc3[nH]nc(Cl)c3cc21` [RIP1-034]: at human RIP1, the negative logarithm of the Ki (pKi) is 8.20. In addition, the IC50 with Jurkat (FADD−/−) cells (setting [2]) stood at 8.9e-10 M. Also, the “decrease in body temperature due to systemic inflammatory response caused by TNF-α” value with TNF-α induced shock is “effectively inhibits the decrease in body temperature”. In addition, the “plasma concentration after oral administration” value in data set [1] is recorded as “can reach a desirable plasma concentration”.

As for `CN1C(=O)[C@@H](NC(=O)c2cc(Cc3ccccc3)on2)COc2cc3[nH]ncc3cc21` [RIP1-021], the pKi on human RIP1 is 7.99. For the same molecule, the IC50 with Jurkat (FADD−/−) cells (setting [2]) is 5.8e-10 M.

As for `CN1C(=O)[C@@H](NC(=O)c2cn(Cc3ccccc3)cn2)COc2cc3[nH]nnc3cc21` [RIP1-137], the pKi on human RIP1 is 7.88. For the same molecule, the IC50 with Jurkat (FADD−/−) cells (setting [2]) amounted to 7.31e-09 M.

On to `COc1ncnc2cc3c(cc12)N(C)C(=O)[C@@H](NC(=O)c1n[nH]c(Cc2ccccc2)n1)CO3` [RIP1-146], for which, at human RIP1, the pKi was 7.88. Moreover, in the data set with Jurkat (FADD−/−) cells (setting [2]), the IC50 amounted to 1.85e-09 M.

`CN1C(=O)[C@@H](NC(=O)c2nnc(Cc3ccccc3)o2)COc2cc3nccnc3cc21` [RIP1-134] had a pKi on human RIP1 of 7.66. Further, the IC50 in the data set with Jurkat (FADD−/−) cells (setting [2]) was determined as 9.03e-09 M.

The molecule `CN1C(=O)[C@@H](NC(=O)c2cn(Cc3ccccc3)cn2)COc2cc3occc3cc21` [RIP1-120] showed a pKi on human RIP1 of 7.68. The IC50 in the data set with Jurkat (FADD−/−) cells (setting [2]) is 2.56e-09 M.

The molecule `Cc1nc2cc3c(cc2[nH]1)OC[C@H](NC(=O)c1cn(Cc2ccccc2)cn1)C(=O)N3C` [RIP1-067] gave a pKi at human RIP1 of 7.54. For the same molecule, the IC50 with Jurkat (FADD−/−) cells was 6.72e-09 M.

`Cc1ccc(Cc2cc(C(=O)N[C@H]3COc4cc5nccnc5cc4N(C)C3=O)nn2C)cc1` [RIP1-133]: the negative logarithm of the Ki (pKi) on human RIP1 was 7.64. In the data set with Jurkat (FADD−/−) cells (setting [2]), the IC50 came to 5.3e-08 M.

For `CN1C(=O)[C@@H](NC(=O)c2nnc(Cc3ccccc3)o2)COc2cc3[nH]nnc3cc21` [RIP1-153], at human RIP1, the negative-log Ki (pKi) is 7.89. Further, the IC50 in the data set with Jurkat (FADD−/−) cells was 1.52e-09 M.

Take `CN1C(=O)[C@@H](NC(=O)c2noc(Cc3ccccc3)n2)COc2cc3nccnc3cc21` [RIP1-132]: on human RIP1, the pKi was 7.71. The IC50 with Jurkat (FADD−/−) cells (setting [2]) was 4.57e-09 M.

Molecule `CN1C(=O)[C@@H](NC(=O)c2cn(Cc3ccccc3)cn2)COc2ccc3ncccc3c21` [RIP1-099] gave a negative logarithm of the Ki (pKi) on human RIP1 of 7.42. Further, the IC50 in the data set with Jurkat (FADD−/−) cells (setting [2]) came to 6.92e-09 M.

As to `Cc1nc2cc3c(cc2[nH]1)OC[C@H](NC(=O)c1cc(Cc2ccccc2)on1)C(=O)N3C` [RIP1-061], on human RIP1, the pKi was 7.36. Moreover, the IC50 in the data set with Jurkat (FADD−/−) cells (setting [2]) was 5.86e-09 M.

Take `CN1C(=O)[C@@H](NC(=O)c2ncn(Cc3ccccc3)n2)COc2cc3[nH]nc(Cl)c3cc21` [RIP1-032]: on human RIP1, the negative-log Ki (pKi) is 7.69. Also, in the data set with Jurkat (FADD−/−) cells, the IC50 came to 2.4e-10 M.

Turning to `CN1C(=O)[C@@H](NC(=O)c2noc(Cc3ccccc3)n2)COc2cc3[nH]nnc3cc21` [RIP1-140], the pKi on human RIP1 was 7.30. Also, the IC50 with Jurkat (FADD−/−) cells (setting [2]) is 1.37e-09 M.

Take `CN1C(=O)[C@@H](NC(=O)c2cn(Cc3ccccc3)nn2)COc2ccc3ncccc3c21` [RIP1-100]: the negative-log Ki (pKi) at human RIP1 was 7.69. The IC50 with Jurkat (FADD−/−) cells (setting [2]) was 3.27e-08 M.
